Source: patent US20080293711A1 (priority 2007, published 2008)

Tested on: not given
Assay: not given
Conditions: in vivo; cited from earlier work

Row | Compound | side effect in clinical study
1 | c1cc(CN2CCCNCCNCCCNCC2)ccc1CN1CCCNCCNCCCNCC1 [AMD3100] | cardiac-related side effect

Tested on: T-tropic HIV
Assay: Phenoscreen assay: inhibition of cellular entry of HIV (luciferase-tagged test vector, target host cells)
Type: cell-based
Conditions: Human immunodeficiency virus 1, read-out: IC50 value for viral entry inhibition
Description: A selected set of compounds are tested for their ability to inhibit the cellular entry of T-tropic HIV. The assay for this inhibition was carried out by Monogram Biosciences, Inc. using their well established Phenoscreen™ assay. Briefly, HIV strains of interest are tagged with a luciferase indicator gene to create an appropriate test vector. The test vector is amplified through transfection and the resulting virus is incubated in the presence of target host cells where intracellular florescence activity then becomes a measure of infection. Amplified virus is exposed to target host cells in the presence of a range of test drug concentrations to determine IC50 measurements of entry inhibition. A modification of this test is further reapplied as a novel drug assay used in partnership with a number of pharmaceutical companies to test the effectiveness of novel entry inhibitors that target specific chemokines. It can used to detect activity against T-tropic, M-tropic, and dual-tropic viruses and Monogram Biosciences has a large bank of over 10,000 different virus strains to ultimately assess the range of applicability of our chemokine modulators. Certain compounds are tested to establish efficacy in a number of viral strains.

Row | Compound | IC50 [µM]
2 | O=C(NCc1ccccc1)c1ccc(C(=O)NNc2ccccc2)cc1 | ≤ 10
3 | O=C(NCc1ccc(C(=O)N(Cc2ccccc2)N2CCOCC2)cc1)c1cccs1 [A, N-(4-(benzyl(morpholino)carbamoyl)benzyl)thiophene-2-carboxamide] | ≤ 10
4 | O=C(NNc1ccc(C(F)(F)F)cc1)c1ccc(CNCc2ccccc2)cc1 [AA, 4-((benzylamino)methyl)-N′-(4-(trifluoromethyl)phenyl)benzohydrazide] | ≤ 10
5 | N#Cc1ccc(NNC(=O)c2ccc(CNCc3ccccc3)cc2)cc1 [AB, 4-((benzylamino)methyl)-N′-(4-cyanophenyl)benzohydrazide] | ≤ 10
6 | O=C(NNc1ccc(F)cc1F)c1ccc(CNCc2ccccc2)cc1 [AF, 4-((benzylamino)methyl)-N1′-(2,4-difluorophenyl)benzohydrazide] | ≤ 10
7 | O=C(NNc1ccccc1)c1ccc(CNCc2ccccn2)cc1 [AL, N′-phenyl-4-((pyridin-2-ylmethylamino)methyl)benzohydrazide] | ≤ 10
8 | O=C(NCc1ccccn1)c1ccc(C(=O)NNc2ccccc2)cc1 [AO, 4-(2-phenylhydrazinecarbonyl)-N-(pyridin-2-ylmethyl)benzamide] | ≤ 10
9 | C[C@H](NC(=O)NCc1ccc(C(=O)NNc2ccccc2)cc1)c1cccc2ccccc12 [BE, (S)-4-((3-(1-(naphthalen-1-yl)ethyl)ureido)methyl)-N′-phenylbenzohydrazide] | ≤ 10
10 | O=C(NNc1ccccc1)c1ccc(CNCc2ccccc2)cc1 [Z, 4-((benzylamino)methyl)-N′-phenylbenzohydrazide] | ≤ 10
